Laboratory results reported in ChEMBL document CHEMBL1150765, “Clavatadine A, a natural product with selective recognition and irreversible inhibition of factor XIa” (J Med Chem, 2008).

Legend:
[1] = molecular target: Coagulation factor IX (Homo sapiens) (UniProt P00740); test: Inhibition of factor 9a at 222 uM
Coagulation factor XI = Coagulation factor XI (Homo sapiens, UniProt P03951); test: Inhibition of factor 11a
Coagulation factor XI, sequence (P03951 19-387 limits assumed): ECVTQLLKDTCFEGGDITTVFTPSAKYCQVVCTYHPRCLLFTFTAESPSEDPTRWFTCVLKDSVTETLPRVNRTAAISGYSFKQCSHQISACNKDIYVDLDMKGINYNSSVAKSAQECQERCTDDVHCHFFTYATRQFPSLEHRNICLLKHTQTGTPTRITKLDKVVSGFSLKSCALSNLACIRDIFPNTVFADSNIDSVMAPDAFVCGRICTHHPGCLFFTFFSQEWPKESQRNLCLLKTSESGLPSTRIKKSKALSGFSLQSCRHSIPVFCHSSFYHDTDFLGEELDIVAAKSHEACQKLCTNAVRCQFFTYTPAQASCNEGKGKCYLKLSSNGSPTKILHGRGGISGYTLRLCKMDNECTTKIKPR
Coagulation factor XI, sequence (P03951 388-625 limits assumed): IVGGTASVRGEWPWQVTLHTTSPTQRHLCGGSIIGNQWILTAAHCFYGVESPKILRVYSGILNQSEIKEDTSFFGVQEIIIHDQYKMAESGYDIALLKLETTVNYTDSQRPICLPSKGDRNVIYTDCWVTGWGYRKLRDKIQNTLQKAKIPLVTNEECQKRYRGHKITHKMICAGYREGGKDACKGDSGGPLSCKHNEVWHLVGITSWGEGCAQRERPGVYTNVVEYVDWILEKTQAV

Coagulation factor IX (Homo sapiens), sequence (P00740 47-191 limits assumed): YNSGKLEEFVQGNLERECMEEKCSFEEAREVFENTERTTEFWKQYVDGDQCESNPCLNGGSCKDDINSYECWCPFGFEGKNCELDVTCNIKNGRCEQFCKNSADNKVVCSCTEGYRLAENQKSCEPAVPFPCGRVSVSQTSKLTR
Coagulation factor IX (Homo sapiens), sequence (P00740 227-461 limits assumed): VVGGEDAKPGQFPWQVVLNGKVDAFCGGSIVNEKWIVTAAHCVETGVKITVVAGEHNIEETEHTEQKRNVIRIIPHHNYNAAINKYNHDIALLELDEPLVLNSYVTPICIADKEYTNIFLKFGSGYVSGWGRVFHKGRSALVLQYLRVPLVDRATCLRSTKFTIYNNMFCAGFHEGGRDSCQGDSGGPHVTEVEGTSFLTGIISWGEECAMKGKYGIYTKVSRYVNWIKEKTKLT

| SMILES | inhibition [1] | IC50 (Coagulation factor XI) |
| --- | --- | --- |
| N=C(N)NCCCCNC(=O)Oc1c(Br)cc(O)c(CC(=O)O)c1Br [CLAVATADINE A] | < 5% | 1.3 µM |
| N=C(N)NCCCCNC(=O)Oc1cc(Br)c(O)c(Br)c1CC(N)=O [CLAVATADINE B] | < 5% | 27 µM |
